ChEMBL document CHEMBL3596179, “Structural development of stabilized helical peptides as inhibitors of estrogen receptor (ER)-mediated transcription” (Bioorg Med Chem, 2015)
Activity calls are given as the source filed them. No cut-off for these calls is given here. Positions of bridges follow the written chain, without caps; N, C: chain ends. Non-standard residues stand in square brackets, D forms with d. Residues, ends and D or L forms follow the SMILES beside them. ξ: configuration not given here. ξtBuAla = CC(C)(C)CC(N)C(=O)O; ξAbu = CCC(N)C(=O)O

Key:
Estrogen receptor = target: T1, Estrogen receptor (Homo sapiens, UniProt P03372)
T1 sequence (P03372 whole entry): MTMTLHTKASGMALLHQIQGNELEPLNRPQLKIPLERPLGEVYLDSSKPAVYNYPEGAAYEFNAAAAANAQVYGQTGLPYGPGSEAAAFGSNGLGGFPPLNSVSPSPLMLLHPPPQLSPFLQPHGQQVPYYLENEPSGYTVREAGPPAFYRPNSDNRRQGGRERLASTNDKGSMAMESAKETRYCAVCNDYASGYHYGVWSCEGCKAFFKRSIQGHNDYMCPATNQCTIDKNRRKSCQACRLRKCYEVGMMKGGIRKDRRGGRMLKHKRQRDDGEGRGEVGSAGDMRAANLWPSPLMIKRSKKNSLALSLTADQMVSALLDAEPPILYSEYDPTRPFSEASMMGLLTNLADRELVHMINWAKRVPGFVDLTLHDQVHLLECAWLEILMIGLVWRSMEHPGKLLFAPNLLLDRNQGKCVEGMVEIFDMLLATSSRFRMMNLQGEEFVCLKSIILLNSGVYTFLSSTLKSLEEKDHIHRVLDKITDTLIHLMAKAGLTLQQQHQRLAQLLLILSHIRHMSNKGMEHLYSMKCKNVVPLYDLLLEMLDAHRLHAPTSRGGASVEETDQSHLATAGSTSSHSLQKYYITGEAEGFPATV
Description: Inhibition of estrogen receptor alpha (unknown origin)-SRC1 coactivator interaction incubated for 1 hr by receptor cofactor assay system based method

[1] = target: T2, Estrogen receptor (Homo sapiens) (UniProt P03372); test: Inhibition of estrogen receptor-mediated gene expression in human T47D cells assessed as reduction in estrogen-induced pS2 mRNA expression at 3 to 30 uM incubated for 24 hrs by qPCR method; format: cell-based
T2 sequence (whole entry): T1 sequence (P03372 whole entry)

[2] = target: T2, Estrogen receptor (Homo sapiens); test: Inhibition of estrogen receptor-mediated gene expression in human T47D cells assessed as reduction in estrogen-induced pS2 mRNA expression at 3 uM incubated for 24 hrs by qPCR method; format: cell-based
[3] = target: T2, Estrogen receptor (Homo sapiens); conditions: T47D, 10 uM
Description: Inhibition of estrogen receptor-mediated gene expression in human T47D cells assessed as reduction in estrogen-induced pS2 mRNA expression at 10 uM incubated for 24 hrs by qPCR method

T47D = test: Drug uptake in human T47D cells at 1 uM incubated for 3 hrs by Hoechst 33342 dye based confocal laser scanning microscopy; format: ADME, cell-based

Compound	IC50 (Estrogen receptor)	further results
CC[C@H](C)[C@@H]1NC(=O)[C@H](NC(=O)[C@@H](N)CCCNC(=N)N)CCCC[C@@H](C(=O)N[C@@H](CCCNC(=N)N)C(=O)NC(CC(C)(C)C)C(=O)N[C@@H](CC(C)C)C(=O)N[C@@H](CCC(N)=O)C(N)=O)NC(=O)[C@H](CC(C)C)NC1=O (stereo not given in full)	> 1000 nM	
N=C(N)NCCC[C@H](NC(=O)[C@H](CCCNC(=N)N)NC(=O)[C@H](CCCNC(=N)N)NC(=O)[C@H](CCCNC(=N)N)NC(=O)[C@H](CCCNC(=N)N)NC(=O)[C@H](CCCNC(=N)N)NC(=O)[C@H](CCCNC(=N)N)NC(=O)[C@@H](N)Cc1ccc(O)cc1)C(N)=O	> 1000 nM	inhibition [1]: inactive
CC[C@H](C)[C@@H]1NC(=O)[C@H](NC(=O)[C@@H](N)CCCNC(=N)N)C/C=C/C[C@@H](C(=O)N[C@@H](CCCNC(=N)N)C(=O)NC(CC(C)(C)C)C(=O)N[C@@H](CC(C)C)C(=O)N[C@@H](CCC(N)=O)C(N)=O)NC(=O)[C@H](CC(C)C)NC1=O (stereo not given in full)	390 nM	
CC[C@H](C)[C@@H]1NC(=O)[C@H](NC(=O)[C@@H](N)CCCNC(=N)N)CSSC[C@@H](C(=O)N[C@@H](CCCNC(=N)N)C(=O)NC(CC(C)(C)C)C(=O)N[C@@H](CC(C)C)C(=O)N[C@@H](CCC(N)=O)C(N)=O)NC(=O)[C@H](CC(C)C)NC1=O (stereo not given in full)	13 nM	
H-HKILHRLLQGGGRRRRRRR-NH2	> 1000 nM	inhibition [1]: inactive
H-HKILHRLLQ-NH2	> 1000 nM	
CC[C@H](C)[C@@H]1NC(=O)[C@H](NC(=O)[C@@H](N)CCCNC(=N)N)C/C=C\C[C@@H](C(=O)N[C@@H](CCCNC(=N)N)C(=O)NC(CC(C)(C)C)C(=O)N[C@@H](CC(C)C)C(=O)N[C@@H](CCC(N)=O)C(N)=O)NC(=O)[C@H](CC(C)C)NC1=O (stereo not given in full)	110 nM	
CC[C@H](C)[C@@H]1NC(=O)[C@H](NC(=O)[C@@H](N)CCCCN)CSSC[C@@H](C(=O)N[C@@H](CCCNC(=N)N)C(=O)N[C@@H](CC(C)C)C(=O)N[C@@H](CC(C)C)C(=O)N[C@@H](CCC(N)=O)C(N)=O)NC(=O)[C@H](CC(C)C)NC1=O (H-K[dC]ILCRLLQ-NH2; disulfide 2-5)	35 nM	
C=CCC(NC(=O)[C@H](CC(C)C)NC(=O)[C@@H](NC(=O)[C@@H](CC=C)NC(=O)[C@@H](N)CCCNC(=N)N)[C@@H](C)CC)C(=O)N[C@@H](CCCNC(=N)N)C(=O)NC(CC(C)(C)C)C(=O)N[C@@H](CC(C)C)C(=O)N[C@@H](CCC(N)=O)C(N)=O (stereo not given in full)	> 1000 nM	
CC[C@H](C)[C@@H]1NC(=O)[C@H](NC(=O)[C@@H](N)CCCNC(=N)N)C/C=C\C[C@@H](C(=O)N[C@@H](CCCNC(=N)N)C(=O)NC(CC(C)(C)C)C(=O)N[C@@H](CC(C)C)C(=O)N[C@@H](CCC(N)=O)C(=O)NCC(=O)NCC(=O)NCC(=O)N[C@@H](CCCNC(=N)N)C(=O)N[C@@H](CCCNC(=N)N)C(=O)N[C@@H](CCCNC(=N)N)C(=O)N[C@@H](CCCNC(=N)N)C(=O)N[C@@H](CCCNC(=N)N)C(=O)N[C@@H](CCCNC(=N)N)C(=O)N[C@@H](CCCNC(=N)N)C(N)=O)NC(=O)[C@H](CC(C)C)NC1=O (stereo not given in full)		inhibition [1]: inactive
CC[C@H](C)[C@@H]1NC(=O)[C@H](NC(=O)[C@@H](N)CCCNC(=N)N)CSSC[C@@H](C(=O)N[C@@H](CCCNC(=N)N)C(=O)NC(CC(C)(C)C)C(=O)N[C@@H](CC(C)C)C(=O)N[C@@H](CCC(N)=O)C(=O)NCC(=O)NCC(=O)NCC(=O)N[C@@H](CCCNC(=N)N)C(=O)N[C@@H](CCCNC(=N)N)C(=O)N[C@@H](CCCNC(=N)N)C(=O)N[C@@H](CCCNC(=N)N)C(=O)N[C@@H](CCCNC(=N)N)C(=O)N[C@@H](CCCNC(=N)N)C(=O)N[C@@H](CCCNC(=N)N)C(N)=O)NC(=O)[C@H](CC(C)C)NC1=O (stereo not given in full)	94 nM	inhibition [2]: 87%
CC[C@H](C)[C@@H]1NC(=O)[C@H](NC(=O)[C@@H](N)CCCCN)CSSC[C@@H](C(=O)N[C@@H](CCCNC(=N)N)C(=O)N[C@@H](CC(C)C)C(=O)N[C@@H](CC(C)C)C(=O)N[C@@H](CCC(N)=O)C(=O)NCC(=O)NCC(=O)NCC(=O)N[C@@H](CCCNC(=N)N)C(=O)N[C@@H](CCCNC(=N)N)C(=O)N[C@@H](CCCNC(=N)N)C(=O)N[C@@H](CCCNC(=N)N)C(=O)N[C@@H](CCCNC(=N)N)C(=O)N[C@@H](CCCNC(=N)N)C(=O)N[C@@H](CCCNC(=N)N)C(N)=O)NC(=O)[C@H](CC(C)C)NC1=O	749 nM	inhibition [2]: 20%; inhibition [3]: 95%
CCC(NC(=O)[C@H](CC(C)C)NC(=O)[C@@H](NC(=O)[C@H](Cc1cnc[nH]1)NC(=O)[C@@H](N)CCCNC(=N)N)[C@@H](C)CC)C(=O)N[C@@H](CCCNC(=N)N)C(=O)NC(CC(C)(C)C)C(=O)N[C@@H](CC(C)C)C(=O)N[C@@H](CCC(N)=O)C(N)=O (stereo not given in full) (H-RHIL[ξAbu]R[ξtBuAla]LQ-NH2)	620 nM	
CCC(NC(=O)[C@@H](N)CCCNC(=N)N)C(=O)N[C@H](C(=O)N[C@@H](CC(C)C)C(=O)N[C@@H](Cc1cnc[nH]1)C(=O)N[C@@H](CCCNC(=N)N)C(=O)NC(CC(C)(C)C)C(=O)N[C@@H](CC(C)C)C(=O)N[C@@H](CCC(N)=O)C(N)=O)[C@@H](C)CC (stereo not given in full) (H-R[ξAbu]ILHR[ξtBuAla]LQ-NH2)	> 1000 nM	
CCC(NC(=O)[C@H](CC(C)C)NC(=O)[C@@H](NC(=O)C(CC)NC(=O)[C@@H](N)CCCNC(=N)N)[C@@H](C)CC)C(=O)N[C@@H](CCCNC(=N)N)C(=O)NC(CC(C)(C)C)C(=O)N[C@@H](CC(C)C)C(=O)NCC(N)=O (stereo not given in full) (H-R[ξAbu]IL[ξAbu]R[ξtBuAla]LG-NH2)	670 nM	
CC[C@H](C)[C@@H]1NC(=O)[C@H](NC(=O)[C@H](CCCCN)NC(=O)c2ccc3c(c2)C2(OC3=O)c3ccc(O)cc3Oc3cc(O)ccc32)CSSC[C@@H](C(=O)N[C@@H](CCCNC(=N)N)C(=O)N[C@@H](CC(C)C)C(=O)N[C@@H](CC(C)C)C(=O)N[C@@H](CCC(N)=O)C(N)=O)NC(=O)[C@H](CC(C)C)NC1=O		Drug uptake (T47D): Not Active
CC[C@H](C)[C@@H]1NC(=O)[C@H](NC(=O)[C@H](CCCNC(=N)N)NC(=O)CNC(=O)CNC(=O)CNC(=O)[C@H](CCCNC(=N)N)NC(=O)[C@H](CCCNC(=N)N)NC(=O)[C@H](CCCNC(=N)N)NC(=O)[C@H](CCCNC(=N)N)NC(=O)[C@H](CCCNC(=N)N)NC(=O)[C@H](CCCNC(=N)N)NC(=O)[C@@H](N)CCCNC(=N)N)CSSC[C@@H](C(=O)N[C@@H](CCCNC(=N)N)C(=O)NC(CC(C)(C)C)C(=O)N[C@@H](CC(C)C)C(=O)N[C@@H](CCC(N)=O)C(N)=O)NC(=O)[C@H](CC(C)C)NC1=O (stereo not given in full)	> 1000 nM	inhibition [1]: inactive
CC[C@H](C)[C@@H]1NC(=O)[C@H](NC(=O)[C@H](CCCCN)NC(=O)c2ccc3c(c2)C2(OC3=O)c3ccc(O)cc3Oc3cc(O)ccc32)CSSC[C@@H](C(=O)N[C@@H](CCCNC(=N)N)C(=O)N[C@@H](CC(C)C)C(=O)N[C@@H](CC(C)C)C(=O)N[C@@H](CCC(N)=O)C(=O)NCC(=O)NCC(=O)NCC(=O)N[C@@H](CCCNC(=N)N)C(=O)N[C@@H](CCCNC(=N)N)C(=O)N[C@@H](CCCNC(=N)N)C(=O)N[C@@H](CCCNC(=N)N)C(=O)N[C@@H](CCCNC(=N)N)C(=O)N[C@@H](CCCNC(=N)N)C(=O)N[C@@H](CCCNC(=N)N)C(N)=O)NC(=O)[C@H](CC(C)C)NC1=O		Drug uptake (T47D): Active
CC[C@H](C)[C@@H]1NC(=O)[C@H](NC(=O)[C@@H](N)CCCNC(=N)N)C/C=C/C[C@@H](C(=O)N[C@@H](CCCNC(=N)N)C(=O)NC(CC(C)(C)C)C(=O)N[C@@H](CC(C)C)C(=O)N[C@@H](CCC(N)=O)C(=O)NCC(=O)NCC(=O)NCC(=O)N[C@@H](CCCNC(=N)N)C(=O)N[C@@H](CCCNC(=N)N)C(=O)N[C@@H](CCCNC(=N)N)C(=O)N[C@@H](CCCNC(=N)N)C(=O)N[C@@H](CCCNC(=N)N)C(=O)N[C@@H](CCCNC(=N)N)C(=O)N[C@@H](CCCNC(=N)N)C(N)=O)NC(=O)[C@H](CC(C)C)NC1=O (stereo not given in full)		inhibition [1]: inactive
